Measured values as given in a melting point compilation (Tetko et al.; mined from patent text by program, amines drawn as free bases though some values may be those of a salt).

Compound	melting point [°C]
Cc1ccc(C(=O)N2CCC(CN3CCc4oc5ccccc5c4C3)CC2)cc1	140
c1cc2c3c(cccc3c1)NCN2	89 to 93
O=S(=O)(Nc1cccc2c(Cl)c[nH]c12)c1ccc(CCCn2ccnc2)cc1	86 to 90
Cc1nc2c(-c3cccc(N4CCN(C)CC4)c3)cnn2c(N)c1-c1ccc(F)c(Cl)c1	224 to 226
CCOc1cccc(-c2nc3n(n2)Cc2ccccc2-3)c1	166 to 167
COc1cc(C)c(C=C2COCC(=Cc3cc(C)c(OC)cc3C)C2=O)cc1C	182 to 184
Cc1c(F)c([N+](=O)[O-])cc2c(=O)c(C(=O)O)cn(-c3cc(N)c(F)cc3F)c12	250 to 252
Cn1cc(CC(NC(=O)CCS)C(=O)O)c2ccccc21 (racemic)	115 to 117
CCCCN(C)c1nsc(N)c1C#N	87 to 89
O=C(O)c1cc(NCc2ccccc2)c(Nc2ccccc2)c(S(=O)(=O)Nc2ccccc2)c1	243
NNC(=O)c1cc2c(Oc3ccc(C(F)(F)F)cc3)cncc2s1	146 to 147
CCCCCCCCCCCCCCCCCCOc1cc(OCCOCCOCCOCC)cc(C(=O)O)c1	38 to 40
CCOc1cc(Cc2cnc(N)nc2N)cc2c1OC(C)(C)C=C2c1cccc(F)c1	185 to 186
CCC(C)C(=O)Nc1c(C(O)(C(F)(F)F)C(F)(F)F)ccc2ccccc12 (stereo not given)	167 to 168
CC(C)CCCC(C)(C)NC(=O)CN1C(=O)c2ccccc2C1=O	162 to 163
O=Cc1ccc(C#Cc2cc3ncnc(Nc4ccc(OCc5cccc(F)c5)c(Cl)c4)c3s2)o1	229
Cc1cc(-c2ccc(C(F)(F)F)cc2)cc(-c2ccnc(-c3cccc(S(N)(=O)=O)c3)n2)n1	> 250
Cc1ccc(Oc2ccc(-c3ccn(CC4CC4)c(=O)c3Cl)cc2F)c(C)n1	143
CCCSc1ccc(C(=O)C(=O)O)[nH]1	87
C=CCSc1ccc(Oc2ccc(C)cc2)nn1	115 to 117
CCN(C1CC(C)(C)Oc2ccc(OCCO)cc21)S(C)(=O)=O (stereo not given)	76 to 78
CCOC(=O)C1C(Cl)C(=O)N1c1ccc(OC)cc1 (stereo not given)	99 to 100
CCS(=O)(=O)CCC(=O)NNC(=O)N1Cc2ccccc2Oc2ccc(N)cc21	172 to 179
O=[N+]([O-])C=C1CN=C(c2ccccc2)c2cc(Cl)sc2N1	154 to 156
O=C(Cn1c(=O)sc2ncc(Cl)cc21)N1CCN(CCO)CC1	198 to 200
COCOc1ccc(O)c(CC#N)c1	68 to 69

Continued, values first:

melting point [°C]	Compound
179	O=c1[nH]c2cc(Cl)ccc2c(NCc2ccccc2)c1-c1ccccc1
174	Clc1nc(N2CCOCC2)nc(N2CCOCC2)n1
135	COc1cc(CCN2CCN(c3nsc4ccccc34)CC2)c([N+](=O)[O-])cc1OC
84 to 86	CCN(CC)CCOC(=N)N1CCC(c2nsc3ccccc23)CC1
208 to 210	COc1ccc2c(Nc3ccc(Cl)cc3F)c(C#N)cnc2c1
164 to 165	Nc1nc(NC2CC2)c2ncn(/C=C3/CC3(CO)CO)c2n1
63.5 to 64	COC(=O)[C@H](Cc1ccccc1)NC(=S)Cc1cc(C)ccc1C
117 to 120	CNCC(O)C1=CNC2C=CC=CC12 (stereo not given)
131 to 132	CC(C)N(CCC(CCN(C(C)C)C(C)C)(C(N)=O)c1ccccc1C(F)(F)F)C(C)C
248	CCn1c(N)c(-c2nccn2COCC[Si](C)(C)C)c(=O)c2ccc(-c3ccc(C(C)C(=O)O)cc3)nc21 (stereo not given)
229 to 231	CC(=O)Nc1ccc(-c2ccnc3c(C(=O)c4ccccc4)cnn23)cc1
46 to 48	Cc1cc(CCCOc2c(C)cc(C#N)cc2C)on1
86	CN1CCC(Cn2sc3cc(Cl)ccc3c2=O)CC1
54 to 55	CCCCC[C@H]1CC[C@H](/C=C/COc2ccc(C=O)cc2)CC1
